Assay results reported in paper PMC6321301, “Phenolic Composition, Antioxidant Properties, and Inhibition toward Digestive Enzymes with Molecular Docking Analysis of Different Fractions from Prinsepia utilis Royle Fruits” (Molecules, 2018).
Read-outs that look alike come from different tables or passages of the source.

Columns and labels:
[1] = biological target: T1, porcine pancreatic lipase (Sus scrofa, UniProt P00591); experiment: Pancreatic lipase inhibition; assay type: biochemical; details: mean ± SD, n = 3
T1 construct: purchased Sigma (Sigma-Aldrich, Shanghai, China); host or cells: porcine pancreas (natural source)
T1 sequence (P00591 1-450): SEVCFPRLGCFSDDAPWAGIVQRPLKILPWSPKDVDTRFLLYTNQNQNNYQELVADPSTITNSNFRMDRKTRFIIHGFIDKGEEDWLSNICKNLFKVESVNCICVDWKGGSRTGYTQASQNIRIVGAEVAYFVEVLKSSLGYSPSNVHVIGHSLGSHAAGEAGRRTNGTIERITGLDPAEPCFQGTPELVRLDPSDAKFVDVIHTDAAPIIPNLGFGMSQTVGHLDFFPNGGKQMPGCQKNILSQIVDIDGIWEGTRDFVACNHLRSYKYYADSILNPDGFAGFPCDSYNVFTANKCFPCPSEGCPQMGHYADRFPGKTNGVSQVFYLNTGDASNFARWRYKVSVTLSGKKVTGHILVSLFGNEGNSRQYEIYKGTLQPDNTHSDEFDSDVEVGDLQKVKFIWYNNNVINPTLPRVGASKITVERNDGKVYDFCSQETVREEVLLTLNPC
Method: (§1) Methanol, acetonitrile, formic acid, and Folin–Ciocalteu reagent were purchased from Merck (Darmstadt, Germany). […] All of the other reagents that were used were of analytical grade.
The inhibitory effects of different fractions from P. utilis fruits, rutin, isorhamnetin-3-O-glucoside, and cyanidin-3-O-glucoside against pancreatic lipase activity were measured according to the method reported earlier. The absorbance (OD) was measured at 400 nm by using a SpectraMax M5 microplate reader. Each test was measured three times.

[2] = biological target: T2, α-glucosidase from Saccharomyces cerevisiae (Saccharomyces cerevisiae, UniProt P53341); experiment: α-Glucosidase inhibition; assay type: biochemical
T2 construct: purchased Sigma (Sigma-Aldrich, Shanghai, China); host or cells: Saccharomyces cerevisiae (natural source, as named)
Method: as §1
The α-glucosidase inhibition activities of different fractions from P. utilis fruits, rutin, and isorhamnetin-3-O-glucoside were evaluated as previously described with some modifications. The absorbance (OD) of the each reaction mixture at 405 nm was recorded by using a SpectraMax M5 microplate reader (Molecular Device, Sunnyvale, CA, USA).

[3] = cited from earlier work
[4] = cited from earlier work; remark: listed apart in the source
[5] = ABTS radical scavenging assay; details: mean ± SD, n = 3
Text: Phenolic compounds in P. utilis fruits may be also in charge of the ABTS scavenging capacities, which were confirmed by a high Pearson’s correlation coefficient between the phenolic contents and ABTS radical scavenging ratio (r = 0.889, p < 0.01). Some discrepancies between the IC50 values of DPPH and ABTS assays of the same fraction from P. utilis fruits were observed, which may be due to the different radical structure. Many previous studies also found a similar phenomenon when the DPPH results were compared with the ABTS findings.
The antioxidant activities of all of the fractions from P. utilis fruits were measured by ABTS assay as described earlier. The absorbance of the reaction mixture was determined with a SpectraMax M5 microplate reader at 745 nm. The ABTS radical scavenging activity (%) of each sample was calculated as [(ODcontrol − ODsample)/ODcontrol] × 100. Each test was measured three times.

[6] = DPPH radical scavenging assay; details: mean ± SD, n = 3
Method: The current result was consistent with many previous studies. Huang et al. reported that the phenolic compounds in P. utilis seeds were responsible for their DPPH radical scavenging activities, regardless of different pretreatments. Zhang et al. also considered phenolics to be the main bioactive substances in Rhus chinensis Mill. fruits to scavenge DPPH radicals.
The antioxidant activities of all of the fractions from P. utilis fruits were determined by DPPH assay according to the methods described earlier. The absorbance of the reaction mixture was recorded by a SpectraMax M5 microplate reader (Molecular Device, Sunnyvale, CA, USA) at 517 nm. The DPPH radical scavenging activity (%) was calculated as [(ODcontrol − ODsample)/ODcontrol] × 100. Each test was measured in triplicate.

H2O2-induced HepG2 cells = experiment: Inhibition of intracellular ROS in H2O2-induced HepG2 cells (DCFH-DA, flow cytometry); assay type: cell-based; details: 8.0 μg/mL, positive control; p < 0.05
Method: HepG2 cells were supplied by Kunming cell bank, Chinese Academy of Sciences (Kunming, China), which were cultured in normal Dulbecco’s Modified Eagle Medium (DMEM) medium containing 10% fetal bovine serum (FBS), 1% antibiotic mixture of streptomycin (100 mg/mL) and penicillin (100 U/mL) at 37 °C with a humidified 5% CO2 atmosphere. […] Briefly, cells were seeded on six-well plates at 2.0 × 10^5 cells per well, and incubated for 24 h. […] Then, cells were harvested and washed twice with phosphate buffer solution (PBS). The cells of all of the groups were incubated with 10 μM of DCFH-DA for 20 min, and washed with serum-free medium to remove excess DCFH-DA by centrifuging at 156× g for five minutes. Subsequently, the intracellular ROS of each group was measured by flow cytometry with guava® easyCyte 6-2L (Millipore, Billerica, MA, USA) within 45 min. All of the experiments were measured in triplicate.

α-glucosidase = details: cited from earlier work

T2 sequence (P53341 whole entry): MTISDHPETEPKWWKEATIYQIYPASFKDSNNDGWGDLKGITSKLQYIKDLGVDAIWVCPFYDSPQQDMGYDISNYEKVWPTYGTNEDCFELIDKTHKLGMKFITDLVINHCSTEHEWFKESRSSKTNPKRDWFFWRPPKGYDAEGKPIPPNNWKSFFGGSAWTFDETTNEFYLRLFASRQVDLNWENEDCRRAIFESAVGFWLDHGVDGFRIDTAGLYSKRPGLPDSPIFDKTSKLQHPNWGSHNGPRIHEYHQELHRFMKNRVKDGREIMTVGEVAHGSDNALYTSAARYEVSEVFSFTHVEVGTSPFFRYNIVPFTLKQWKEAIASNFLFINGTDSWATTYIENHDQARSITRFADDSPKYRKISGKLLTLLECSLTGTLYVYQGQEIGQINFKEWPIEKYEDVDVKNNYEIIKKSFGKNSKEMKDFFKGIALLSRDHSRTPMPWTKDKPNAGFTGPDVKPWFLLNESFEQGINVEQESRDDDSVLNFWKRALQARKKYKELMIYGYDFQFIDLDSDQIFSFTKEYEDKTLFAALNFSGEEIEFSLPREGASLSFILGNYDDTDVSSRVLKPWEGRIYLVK

OC[C@H]1O[C@@H](Oc2cc3c(O)cc(O)cc3[o+]c2-c2ccc(O)c(O)c2)[C@H](O)[C@@H](O)[C@@H]1O [Cyanidin-3-O-glucoside]
pancreatic lipase inhibition IC50 [1]: 249.20 ± 3.87 µg/mL

COc1cc(-c2oc3cc(O)cc(O)c3c(=O)c2O[C@@H]2O[C@H](CO[C@@H]3O[C@@H](C)[C@H](O)[C@@H](O)[C@H]3O)[C@@H](O)[C@H](O)[C@H]2O)ccc1O [Isorhamnetin-3-O-rutinoside]
α-glucosidase inhibition IC50 ([2]; mean ± SD, n = 3): 90.19 ± 3.27 µg/mL | pancreatic lipase inhibition IC50 [1]: 237.87 ± 8.20 µg/mL

C[C@@H]1O[C@@H](OC[C@H]2O[C@@H](Oc3c(-c4ccc(O)c(O)c4)oc4cc(O)cc(O)c4c3=O)[C@H](O)[C@@H](O)[C@@H]2O)[C@H](O)[C@H](O)[C@H]1O [Rutin]
ABTS radical scavenging IC50 [3]: 5.34 µg/mL | IC50 [2]: 208 µM | IC50 [1]: 289 µM | DPPH radical scavenging IC50 [4]: 29.63 µg/mL

O=C1O[C@H]([C@@H](O)CO)C(O)=C1O [Vc, ascorbic acid]
ABTS radical scavenging IC50 [5]: 1.92 ± 0.21 µg/mL | DPPH radical scavenging IC50 [6]: 2.32 ± 0.11 µg/mL | intracellular ROS generation (H2O2-induced HepG2 cells): significantly inhibited intracellular ROS generation

O=C(O[C@@H]1Cc2c(O)cc(O)cc2O[C@H]1c1cc(O)c(O)c(O)c1)c1cc(O)c(O)c(O)c1 [gallocatechin gallate]
manner of α-glucosidase inhibition (α-glucosidase): noncompetitive | α-glucosidase inhibition IC50 (α-glucosidase): 30.02 µg/mL

O=C(CCc1ccc(O)cc1)c1c(O)cc(O)cc1O [phloretin]
α-glucosidase inhibition IC50 (α-glucosidase): 31.26 µg/mL | manner of α-glucosidase inhibition (α-glucosidase; reversible): mixed-type
